Laboratory results published in patent US20220062299A1, “USE OF GLUCOCORTICOID STEROIDS IN PREVENTING AND TREATING CONDITIONS OF MUSCLE WASTING, AGING AND METABOLIC DISORDER” (NORTHWESTERN UNIVERSITY, priority 2018, published 2022).

Columns and labels:
mdx mice = assay: Dosing of metabolic and endocrine biomarkers in blood, serum and tissues, mdx mice, long-term (40 weeks) weekly prednisone; format: in vivo
Experimental: (§1) Animal handling and steroid regimens. Mice were housed in a pathogen-free dedicated vivarium in accordance with Institutional Animal Care and Use Committee (IACUC) guidelines. Euthanasia was performed through carbon dioxide inhalation followed by cervical dislocation and heart removal. All methods using living animals in this study were performed in ethical accordance with the American Veterinary Medical Association (AVMA) and under protocols fully approved by both the Institutional Animal Care and Use Committee (IACUC) at Northwestern University Feinberg School of Medicine (protocol number ISO00000761). Consistent with the ethical approvals, all efforts were made to minimize suffering. Mice were fed ad libitum with Mouse Breeder Sterilizable Diet (#7904; Harlan Teklad, Indianapolis, Ind.) and maintained on a 12-hour light/dark cycle. mdx mice from the DBA/2J background were obtained from the Jackson Laboratory (Bar Harbor, Me.; stock #013141) and interbred. Male mice were used for reported experiments. Age at start was approximately 6 months for short-term experiments, approximately 6 weeks for long-term experiments. Dysferlin-null (Dysf-null) mice from the 129T2/SvEmsJ background were previously characterized (Demonbreun et al., 2011; Demonbreun et al., 2014). Age at start was approximately 9 months for long-term experiments. For experiments with Dysf-null and wildtype mice, both females and males (approximately 1:1 ratio) were randomized in treatment groups. […] Dosing was based on weekly weight measurements (1 mg/kg body weight, (Sali et al., 2012)) in 100 μl total PBS volume per dose. Mice were injected daily via intraperitoneal injection at 7 AM. On injection days, stock solutions stored at −20° C. were diluted into sterile Eppendorf tubes containing sterile phosphate buffered saline (PBS) (#14190; Thermo Fisher, Waltham, Mass.). Puromycin (cat #A1113803, Thermo Scientific, Waltham, Mass.) was administered i.p. as 0.040 μmol/body g, and tissues were snap-frozen 30 minutes after injection. Sterile BD Micro-Fine IV Insulin Syringes (#14-829-1A; Fisher Scientific, Waltham, Mass.) were used to inject the intraperitoneal cavity of non-sedated animals. All animal analyses both during treatment and at endpoint were conducted blinded to treatment groups.
Dosing of metabolic and endocrine biomarkers. Glycogen was quantitated using the Glycogen Assay Kit (#ab65620; Abcam, Cambridge, Mass.) from approximately 25 mg frozen-pulverized whole tissue, following manufacturer's instructions and internal standards for calculating μg/mg values. For measurement of whole-tissue ATP/NAD^+ levels, approximately 25 mg frozen-pulverized tissue was extracted in 10% perchloric acid and neutralized in 0.75 M K2CO3, as previously described (Ramsey et al., 2009). NAD+ and ATP were measured by high-pressure liquid chromatography (HPLC) with Shimadzu LC-20A pump (Shimadzu Scientific Instr Inc, Addison, Ill.) and UV-VIS detector, using a Supelco LC-18-T column (15 cm×[…]; #58970-U; Millipore-Sigma, St Louis, Mo.). […] ATP and NAD^+ eluted as sharp peaks at 3 and 14 minutes, respectively, and were normalized to tissue weight of frozen liver tissue for calculating pmol/mg values. Corticosterone was measured in mouse serum and cortisol was measured in human serum using dedicated ELISA kits (#ADI-900-097, Enzo Life Science, Farmingdale, N.Y.; #K7430-100, BioVision, Milpitas, Calif.) according to manufacturer's instructions and internal standards to calculate ng/ml values. Insulin levels were quantitated in mouse and human serum with species-specific ELISA kits (#10-1247-01 (mouse-specific); #10-1113-01 (human-specific); Mercodia, Uppsala, Sweden), following manufacturer's instructions and internal standards to calculate ng/ml values. Free fatty acids were quantitated using Enzychrom Free Fatty Acid Assay kit (#EFFA-100; BioAssay Systems, Hayward, Calif.), following kit's instructions and standards to calculate μM (serum) and nmol/mg (tissue) values.

[1] = tested on: BCKDHA and mTOR pathway members in mdx muscle; assay: Protein analysis of BCKDHA and mTOR pathway members in mdx muscle; format: in vivo, mouse; details: weekly prednisone
Experimental: as §1
Protein analysis. Protein lysates from approximately 50 mg muscle tissue were obtained with homogenization at the TissueLyser II (cat #85300; Qiagen, Hilden, Germany) for two rounds of 2 minutes each with 2 minutes pause in between, using sample plates chilled at −20° C. o/n and one stainless 5 mm bead per sample (cat #69989; Qiagen, Hilden, Germany). […]

[2] = mdx muscle, 12-week-long treatment

Structure (SMILES): C[C@]12C=CC(=O)C=C1CC[C@@H]1[C@@H]2C(=O)C[C@@]2(C)[C@H]1CC[C@]2(O)C(=O)CO [prednisone, Prednisone]
- blood glucose (mdx mice): no change
- serum BCAA (mdx mice; mean ± s.e.m): 462 ± 7.32 µM
- serum corticosterone (mdx mice; mean ± s.e.m): 133 ± 8.36 ng/mL
- serum creatine kinase (mdx mice; mean ± s.e.m): 3.1 ± 0.16 U/ml
- serum free fatty acids (mdx mice; mean ± s.e.m): 547 ± 10.4 µM
- serum insulin (mdx mice; mean ± s.e.m): 1.51 ± 0.14 ng/mL
- serum β-hydroxybutyrate (mdx mice; mean ± s.e.m): 372 ± 5 µM
- tissue BCAA, diaphragm (mdx mice; mean ± s.e.m): 49.4 ± 2.14 nmol/mg
- tissue BCAA, heart (mdx mice; mean ± s.e.m): 1.74 ± 0.08 nmol/mg
- tissue BCAA, omental fat (mdx mice; mean ± s.e.m): 23.5 ± 0.43 nmol/mg
- tissue BCAA, quadriceps (mdx mice; mean ± s.e.m): 95.3 ± 3.21 nmol/mg
- tissue free fatty acids, heart (mdx mice; mean ± s.e.m): 0.211 ± 0.01 nmol/mg
- tissue free fatty acids, omental fat (mdx mice; mean ± s.e.m): 3.91 ± 0.12 nmol/mg
- tissue free fatty acids, quadriceps (mdx mice; mean ± s.e.m): 0.752 ± 0.05 nmol/mg
- tissue β-hydroxybutyrate, diaphragm (mdx mice; mean ± s.e.m): 12.9 ± 0.89 nmol/mg
- tissue β-hydroxybutyrate, heart (mdx mice; mean ± s.e.m): 20.2 ± 0.51 nmol/mg
- tissue β-hydroxybutyrate, omental fat (mdx mice; mean ± s.e.m): 23 ± 1.71 nmol/mg
- tissue β-hydroxybutyrate, quadriceps (mdx mice; mean ± s.e.m): 24.7 ± 1.58 nmol/mg
- levels of mTOR-bound RagC and phosphorylation of S6K and 4EBP1 [1, 2]: increased
- protein translation and muscle mass (puromycin incorporation and myofiber size) [1, 2]: increased
- phosphorylation of BCKDHA ([1]; quadriceps muscle of mdx mice): reduced
- total levels of branched chain keto acid dehydrogenase (BCKDHA) ([1]; quadriceps muscle of mdx mice): increased
